For one data set, the system named is A549 cells. Put plainly: MTT assay, metabolic activity of A549 cells. Type of data set: cell-based, human. The following applies: for IC50: Homo sapiens. The procedure:
(§1) The effect of acridine-benzohydrazides (3a–3d) on the metabolic activity of the lung adenocarcinoma cell line (A549) and the normal colon fibroblast cell line (CCD-18Co) was evaluated using a 3-(4,5-dimethylthiazol-2-yl)-2,5-diphenyltertrazolium bromide (MTT) cell assay. This assay is based on the metabolization of yellow MTT to purple formazan crystal by mitochondrial dehydrogenases, and therefore only metabolic active cells are capable of that reaction. The CCD-18Co cell line was used as a control to check for derivatives selectivity. The doxorubicin belongs to a group of anthracyclines, which represent the chemotherapeutic regiments for the treatment of NSCLC (non-small cell lung carcinoma) even today, and acts as antineoplastic mainly by interaction with the DNA topoisomerase II and by creating DNA single- and double-strand breaks. Previous studies described detailed cytotoxic effects of doxorubicin in the human lung adenocarcinoma A549 cell line. Doxorubicin resembles our compounds in its biological action; therefore, it was employed as a positive control.
(§2) Human lung carcinoma cell line A549 and CCD-18Co colon fibroblasts were purchased from the American Type Culture Collection (ATCC, Rockville, MD, USA). The A549 cells were cultured in a complete RPMI-1640 medium (Sigma-Aldrich, St. Louis, MO, USA) and CCD-18Co cells were cultured in a minimum essential medium (MEM) (PAN-Biotech GmbH, Aidenbach, Germany) at 37 °C, 95% humidity and 5% CO2. The media were supplemented with 10% fetal bovine serum (FBS, Biosera, Nuaille, France) and antibiotics (1% Antibiotic-Antimycotic 100 × and 50 × 10^−3 g L^−1 gentamicin, Biosera). Prior to the selected treatments, cells were seeded on 6- and/or 96-well plates (TPP, Trasadingen, Switzerland) and left to settle for 24 h. The acridine compounds solutions (at concentrations ranging from 5–75 µM) were then added to cells for 24 or 48 h, and analysis was subsequently performed.
(§3) MTT assays were performed in order to evaluate changes in the metabolic activity of cells that had occurred as a consequence of treatment with the acridine compounds. A549 cells (15 × 10^3 cells/cm^2) and CCD-18Co (15.625 × 10^3 cells/cm^2) were seeded in 96-well microplates. The A549 cells were treated for 24 and 48 h, and the CCD-18Co cells were treated for 48 h with different concentrations (5, 25, 50 and 75 µM) of the derivatives. After the treatment, the MTT (3-(4,5-dimethylthiazol-2-yl)-2,5-diphenyltertrazolium bromide) solution in PBS (5 mg mL^−1) was added to each well. The reaction was stopped after 4 h incubation, and the formazan was dissolved by the addition of SDS at a final concentration of 3.3%. The absorbance of formazan (λ = 584 nm) was measured using a BMG FLUOstar Optima spectrometer (BMG Labtech GmbH, Offenburg, Germany). The results were evaluated as percentages of the absorbance of the untreated control. Results are presented as the average percentage of cells from three independent experiments. IC50 values for the derivatives were extrapolated from a sigmoidal fit (dose-response curve) to the metabolic activity data using OriginPro 8.5.0 SR1 (OriginLab Corp., Northampton, MA, USA).

The subject of a further data set is CCD-18Co cells. Put plainly: MTT assay, metabolic activity of CCD-18Co fibroblasts. Type of data set: cell-based, human. The following applies: 48 h. The procedure:
as §1, §2, §3

`O=C(N/N=C/c1ccc(F)cc1)c1cccc2cc3ccccc3nc12` [7b, N′-[(E)-4-Fluorophenylmethylidene]acridine-4-carbohydrazide] had a melting point of 255 to 256 °C.

As to `COc1cccc2c1C(=O)c1c(O)c3c(c(O)c1C2=O)C[C@@](O)(C(=O)CO)C[C@@H]3O[C@H]1C[C@H](N)[C@H](O)[C@H](C)O1` [DOXO, doxorubicin, reference compound], in the data set on A549 cells (24 h and 48 h, 5–75 μM tested), the “effect on metabolic activity of A549 cells” value is listed as “significantly decreased”. For the same compound, the IC50 in the data set with A549 cells (A549, 24 h) turned out to be 56 µM; in the data set on A549 cells (A549, 48 h) it was 5 µM; with CCD-18Co cells (Homo sapiens, CCD-18Co) it was 5 µM. Besides, in the data set on CCD-18Co cells (5–75 μM tested), the “effect on metabolic activity of CCD-18Co cells” value was “significantly decreased”.

In turn, `O=C(N/N=C/c1ccc(Br)cc1)c1cccc2cc3ccccc3nc12` [7d, N′-[(E)-4-Bromophenylmethylidene]acridine-4-carbohydrazide] had a melting point of 240 to 241 °C.

With `O=C(N/N=C/c1ccc(Cl)cc1)c1cccc2cc3ccccc3nc12` [7c, N′-[(E)-4-Chlorophenylmethylidene]acridine-4-carbohydrazide], the melting point was in the range of 243 to 244 °C.

For the origin of these results see article PMC9100673, “Acridine Based N-Acylhydrazone Derivatives as Potential Anticancer Agents: Synthesis, Characterization and ctDNA/HSA Spectroscopic Binding Properties” (Molecules, 2022).
